From PubChem BioAssay AID1981 (Southern Research Specialized Biocontainment Screening …, 2009) come the findings set out here.

SMILES strings stand for the structures. Several values for one entry are separate records, joined by “and”; a condition that tells them apart may be missing. Equal entries are not always repeated.

The IC50 is the concentration that inhibits the measured activity by half.

The assay deals with S. Typhimurium PhoP-promoter GFP reporter counterscreen, fluorescence, 4 h. Nature of the assay: S. Typhimurium GFP fluorescence modified counterscreen for PhoP regulon inhibitor project dose response (AID 1981).
As for `CCn1cc(C(=O)O)c(=O)c2cc(F)c(N3CCN(C)CC3)cc21`, the IC50 is 1.46 µM. In the case of `COc1cc(C)c(Cc2cnc(N)nc2N)cc1OC`, the half-inhibitory concentration (IC50) was 3.05 µM. With `Cc1ccc(Nc2cc(C)nn2-c2nc(C)cc(=O)[nH]2)cc1` the figure was 12.4 µM.

On to `CN(C)c1ccc(O)c2c1CC1CC3[C@@H](N(C)C)C(=O)C(C(N)=O)=C(O)[C@]3(O)C(=O)C1=C2O` (stereo not given in full), for which the 50% inhibitory concentration (IC50) was 1.54 µM.

As for `Oc1c(C(Nc2nc3ccccc3s2)c2ccco2)ccc2cccnc12` (stereo not given), the IC50 was 57 µM.

In the case of `Cc1ccc(C(=O)Sc2cccccc2=O)cc1`, the concentration for half-maximal inhibition (IC50) is 16.5 µM. The result for `O=[N+]([O-])c1ccc(-c2ccn[nH]2)o1` reads 33.7 µM.

As to `Oc1c(I)cc(Cl)c2cccnc12`, the IC50 was 70.7 µM. The result for `CCCC(=O)NC(c1ccc(N(C)C)cc1)c1ccc2cccnc2c1O` (stereo not given) reads 49.4 µM. As to `CCN(CC(=O)NC(C)(C)C)C(=O)COc1c(Cl)cc(Cl)c2ccc(C)nc12`, the IC50 is 136 µM. On to `Oc1ccc(CN2CCc3ccccc3C2)c2cccnc12`, for which the IC50 is 30.5 µM. The result for `CCCCCCCCCC[N+](C)(C)CC/C=C1/c2ccccc2Sc2ccc(Cl)cc21` reads 40 µM; that for `CN1CCN(c2c(F)cc3c(=O)c(C(=O)O)cn4c3c2SCC4)CC1`, 7.73 µM and 6.13 µM; that for `Nc1nc(F)nc2c1ncn2[C@@H]1O[C@H](CO)[C@@H](O)[C@H]1O`, 18.3 µM. The result for `CCCCCCCCCCCCCCCCn1cc[n+](C)c1` reads 13 µM. The result for `CN1CCN(c2c(F)cc3c(=O)c(C(=O)O)cn4c3c2OCN4C)CC1` reads 0.28 µM; that for `Nc1nonc1-n1nnc(C(=O)N/N=C/c2cc(Br)ccc2O)c1CSC1=NCCS1`, 145 µM; that for `CCOC(=O)N1CCN(C(c2cccnc2)c2ccc3cccnc3c2O)CC1` (stereo not given), 57.1 µM. As to `C#CCOCCOCCOCCNc1nc(N2CCN(C(=O)CCCCCCCCCCNC(=O)[C@H](CCCN=C(N)N)n3cc(C[C@@H](C)CC)nn3)CC2)nc(N2CCN(C(=O)CCCCCCCCCCNC(=O)[C@@H]([C@H](C)CC)n3cc(CCCCCN)nn3)CC2)n1`, the IC50 is 41.4 µM.

On to `CCN1/C(=C/C=C/c2sc3ccccc3[n+]2CC)Sc2ccccc21`, for which the IC50 is 37.2 µM. With `Cc1conc1NC(c1cccs1)c1ccc2cccnc2c1O` (stereo not given), the IC50 was 36.8 µM.

For the compound `O=[N+]([O-])c1ccc(N/N=C/c2ccc[nH]2)cc1`, the 50% inhibitory concentration (IC50) is 141 µM. With `NC(=NCCCCCCN=C(N)/N=C(\N)Nc1ccc(Cl)cc1)/N=C(\N)Nc1ccc(Cl)cc1`, the IC50 is 9.12 µM and 9.93 µM and 9.09 µM. `Oc1cccc2ccc(Nc3ccccn3)nc12`: the IC50 is 14.5 µM.

As for `O=C(CSc1ccccn1)N/N=C/c1cc([N+](=O)[O-])ccc1O`, the IC50 was 45.6 µM.

`CCCCCCCCCCCCCCCC[N+](C)(C)CCN(Cc1ccc(OC)cc1)c1ncccn1`: the IC50 was 24.2 µM. On to `Clc1ccc(Cl)c(OCCCCNCc2ccccc2)c1`, for which the IC50 was 131 µM. With `CCOc1cccc(CNc2ccc(O)cc2)c1OCc1ccc(Cl)cc1Cl` the figure was 125 µM; with `Oc1c(C(Nc2ccccn2)c2ccccn2)ccc2cccnc12` (stereo not given), 55.2 µM. For the compound `O=S1(=O)Nc2c(ccc3cccnc23)-c2ccccc21`, the IC50 was 3.01 µM.

Take `CN(C)c1ccc(/C=C/c2ccc3c4ccccc4ccc3[n+]2-c2ccccc2)cc1`: the IC50 is 18.8 µM. In the case of `COc1ccc(C(C[N+](=O)[O-])n2nc(C)cc2C)cc1` (stereo not given), the IC50 is 21.6 µM. The result for `CCCCC(CC)CN=C(N)NC(N)=NCCCCCCN=C(N)NC(N)=NCC(CC)CCCC` (stereo not given) reads 5.47 µM. With `Cc1ccccc1NC(=O)CCC(=O)N/N=C/c1cc([N+](=O)[O-])ccc1O` the figure was 138 µM; with `O=C(O)C1Nc2c(O)cccc2C2C=CCC12` (stereo not given), 64.9 µM; with `CCCCCCCCCCOC(=O)Cn1c(COc2cccc(C)c2)[n+](C)c2ccccc21`, 28.5 µM. The result for `CCCCCCOC(=O)C[N+](C)(C)CCOC1CC2CCC1(C)C2(C)C` (stereo not given) reads 71.2 µM. Regarding `CNc1nc(NCc2ccccc2)c2ccccc2n1`, the IC50 is 96.7 µM. With `Nc1cccc2nc3ccccc3cc12`, the IC50 was 43.4 µM. As to `Cc1nc(N)nc(N)c1/C=C/C(C)(C)c1ccc(Cl)cc1`, the IC50 is 12.9 µM.

For the compound `CCOc1cc(/C=N/N=C(N)N)ccc1OCc1ccc(Cl)cc1`, the IC50 is 56.8 µM. For `C/C(=N\N=C(N)N)c1ccc(Cl)c(Cl)c1`, the IC50 was 92.6 µM.

In the case of `C#CCOCCOCCOCCNc1nc(N2CCN(C(=O)CCCCCCCCCCNC(=O)[C@H](CCCCN)n3cc(C[C@@H](C)CC)nn3)CC2)nc(N2CCN(C(=O)CCCCCCCCCCNC(=O)[C@H](CCCN=C(N)N)n3cc(C[C@@H](C)CC)nn3)CC2)n1`, the IC50 is 140 µM.

Regarding `O=Cc1ccc(O)c2ncccc12`, the IC50 was 6.78 µM. As to `Oc1ccc(/C=N/Nc2ncc(Br)cn2)c(O)c1`, the IC50 was 128 µM. With `CN(C)C1C(=O)C(C(N)=O)=C(O)C2(O)C(=O)C3=C(O)c4c(O)cccc4C(C)(O)C3C(O)C12` (stereo not given), the IC50 is 1.35 µM. For `COc1c(N2CCN(C(=S)Nc3ccccc3F)C(C)C2)c(F)cc2c(=O)c(C(=O)O)cn(C3CC3)c12` (stereo not given), the IC50 was 2.31 µM. For `O=S1(=O)CCC(NC(=S)SCCOc2ccccc2)C1` (stereo not given), the IC50 is 86.5 µM.

`CO/N=C(/C(=O)N[C@@H]1C(=O)N2C(C(=O)O)=CCS[C@H]12)c1cnc(N)s1`: the concentration for half-maximal inhibition (IC50) is 23.6 µM. With `CO[C@H]1C=CO[C@@]2(C)Oc3c(C)c(O)c4c(O)c(c(C=NN5CCN(C)CC5)c(O)c4c3C2=O)NC(=O)C(C)=CC=C[C@H](C)[C@H](O)[C@@H](C)[C@@H](O)[C@@H](C)[C@H](OC(C)=O)[C@@H]1C` the figure was 11.2 µM.

Regarding `O=[N+]([O-])c1cc(CN2CCOCC2)c2cccnc2c1O`, the IC50 is 64.3 µM. For the compound `Cc1nc(NC(=O)c2ccccc2)sc1-c1csc(Nc2ccc(F)cc2)n1`, the half-maximal inhibitory concentration (IC50) was 86.4 µM.

As to `CCCCCCCCCCCCCCCC[n+]1cccc(C(=O)N(CC)CC)c1`, the half-inhibitory concentration (IC50) is 29.6 µM.

Turning to `COc1cnc(-c2ccccn2)[nH]c1=O`, the IC50 was 45.7 µM.

On to `COC12C(COC(N)=O)C3=C(C(=O)C(C)=C(N)C3=O)N1CC1C2N1C` (stereo not given), for which the IC50 is 65.8 µM.

Turning to `CCc1ccc(S(=O)(=O)/N=C2/C=C(Sc3ncn[nH]3)C(=O)c3ccccc32)cc1`, the IC50 was 138 µM. Regarding `Nc1ccc2c(c1)C(=O)C(=O)c1ccccc1-2`, the concentration for half-maximal inhibition (IC50) is 10.9 µM. Turning to `COC1C(OC(=O)c2ccc(C)[nH]2)C(O)C(Oc2ccc3c(O)c(NC(=O)c4ccc(O)c(CC=C(C)C)c4)c(=O)oc3c2Cl)OC1(C)C` (stereo not given), the IC50 was 19.3 µM. `Cc1ccc(C(C[N+](=O)[O-])c2c(-c3ccccc3O)[nH][nH]c2=O)cc1` (stereo not given): the IC50 was 39.2 µM. With `Cc1[nH]n(-c2ccccc2)c(=O)c1C(C[N+](=O)[O-])c1ccc(F)cc1` (stereo not given) the figure was 109 µM; with `COC(=O)C1C(O)C(C)C(O)C(C)(O)/C=C\C=C(/C)C(=O)Nc2c(C)c(OC(C)=O)c3c(c2O)C(=O)C(C)=C2OCOC(=C23)/C(C)=C/C(C)(O)C(O)C(C)C1O` (stereo not given), 18.6 µM; with `Oc1c(CN2CCOCC2)cc(COCc2ccccc2)c2cccnc12`, 98.2 µM. With `O=C1OCC(CO)(CO)N=C1NNc1ccc(Cl)c(Cl)c1` the figure was 53.3 µM; with `NCCc1c(-c2ccccc2)n(-c2ccccc2)c2ccccc12`, 83.7 µM; with `Nc1nnc(-c2cccc(Cl)c2Cl)c(N)n1`, 66.4 µM. With `C#CCOCCOCCOCCNc1nc(N2CCN(C(=O)CCCCCCCCCCNC(=O)[C@H]([C@@H](C)CC)n3cc(CCCCN=C(N)N)nn3)CC2)nc(N2CCN(C(=O)CCCCCCCCCCNC(=O)[C@H]([C@@H](C)CC)n3cc(CCCCN=C(N)N)nn3)CC2)n1` the figure was 61.1 µM.

Regarding `Cc1scc(C(=O)N/N=C/c2ccc([N+](=O)[O-])o2)c1C`, the IC50 was 68.7 µM.

For `O=c1c(O)cccc2cc(O)c(O)c(O)c12`, the IC50 is 18.2 µM. `COc1nsnc1NS(=O)(=O)c1ccc(NC(=S)NC(=O)c2cccnc2)cc1`: the IC50 is 34.4 µM. With `O=C1c2ccccc2NC(c2ccc(-c3ccc(Br)cc3)o2)N1O` (stereo not given) the figure was 53 µM.

On to `C=CC#CC[N+]1(CC#Cc2ccccc2)CCOCC1`, for which the IC50 is 30.3 µM.

Take `Oc1cccc(/C=N/Nc2ccc(Cl)nn2)c1O`: the 50% inhibitory concentration (IC50) was 24.4 µM. For the compound `O=S(=O)(Nc1cc(Sc2cccc3cccnc23)c(O)c2ccccc12)c1ccc(F)cc1`, the IC50 is 57.2 µM.

For the compound `O=C(N/N=C/c1sc2ccccc2c1O)c1cccc2ccccc12`, the 50% inhibitory concentration (IC50) was 40 µM. The result for `COc1ccccc1CNCCc1ccc(F)cc1` reads 61.4 µM; that for `Oc1cccc(C=NCc2ccccc2)c1O`, 109 µM.

With `O=[N+]([O-])c1cc(Cl)c2cccnc2c1O`, the IC50 is 1.96 µM.

As to `CCn1cc(C(=O)O)c(=O)c2cc(F)c(N3CCNCC3)cc21`, the IC50 is 0.89 µM. The result for `CN1CCc2c(sc(NC(=O)c3ccc([N+](=O)[O-])o3)c2C(N)=O)C1` reads 33.7 µM. With `OCc1ccc(O)c2ncccc12` the figure was 146 µM; with `Oc1ccc(NCc2ccccc2OCc2ccccc2F)cc1`, 79.6 µM. Consider `COc1ccc(/C=N/Nc2cc(C)nc3c(C)cccc23)cc1`, for which the IC50 was 93.3 µM.

`c1ccc(-c2cccc(-c3ccccn3)n2)nc1`: the IC50 was 16.4 µM. `CC(C(=O)NC1C=CS(=O)(=O)C1)N1C(=O)/C(=C/c2ccc(Cl)cc2)SC1=S` (stereo not given): the half-inhibitory concentration (IC50) was 141 µM. In the case of `CCn1nc(C(=O)O)c(=O)c2cc3c(cc21)OCO3`, the IC50 is 52.1 µM. `CCc1ccc(-c2nn(-c3ccccc3)cc2CSC(=N)N)cc1`: the IC50 is 40.4 µM. With `COc1ccccc1CNCC(O)Cn1c2ccccc2c2ccccc21` (stereo not given) the figure was 88.7 µM; with `CCN1CCN(C(c2ccc(C(F)(F)F)cc2)c2ccc3cccnc3c2O)CC1` (stereo not given), 46.1 µM. With `O=C1C(SCCO)=C(SCCO)C(=O)c2ccccc21` the figure was 64.9 µM; with `O=C(Nc1nc(-c2ccccn2)cs1)c1ccc(Cl)s1`, 27.8 µM. `NC(N)=N/N=C/c1ccc(OCc2ccc(Cl)cc2)cc1`: the IC50 is 56.5 µM.

Regarding `Cc1ccnc(NC(c2cccnc2)c2ccc3cccnc3c2O)c1` (stereo not given), the IC50 is 76.4 µM. On to `CC[n+]1c(/C=C/c2ccc(N(C)C)cc2)ccc2ccccc21`, for which the IC50 was 91.2 µM. As for `O=C(NNC(=O)c1cnccn1)c1ccc(Cl)cc1`, the half-maximal inhibitory concentration (IC50) was 89.5 µM. Consider `CC1CCc2c(N3CCC(O)CC3)c(F)cc3c(=O)c(C(=O)O)cn1c23` (stereo not given), for which the IC50 is 6.56 µM.
